Consider six compounds from US20200179269A1, “VAPORIZABLE COMPOSITIONS COMPRISING CANNABINOL” (KANABO RESEARCH LTD., priority 2017, published 2020).

For this test, the system named is Loss of Righting Reflex (LORR) in mice. In words: Sleep induction model in mice: Loss of Righting Reflex (LORR) after Pentobarbital, sleep latency and sleep duration. It counts as in vivo, mice BALB/c. The arrangement: Sleep latency median / Sleep latency (mean) / Sleep duration median / Sleep duration (mean): unit not given here. From the text: The objective of the present study is to evaluate various cannabinoid mixtures with terpenes in the sleep induction model in mice and then in the second part optimize the doses.
Study Variables and End Points • Mortality and morbidity—once a day. • Body weight—during acclimation and before dosing. • Behavioral test—righting reflex—sleep latency and duration
The principle of the study is based on the ability of sleep promoting agents to shorten the time until Loss of Righting Reflex (LORR) occurs and prolong the presence of LORR in rodents treated with established anesthetizing agent.
Mice were be utilized and divided into 62 groups of three in each group.
Combinations of 3 different cannabinoids: CBN, CBD and THC and 2 terpenes: (β-myrcene and linalool were tested. Diazepam (2 mg/kg) was used as a positive control. Ethanol:Cremophor:Saline (1:1:18) was used as negative control. The items were dissolved in Ethanol:Cremophor:Saline. The items, positive and negative controls were IP injected. Three (or four) mice were used for each group. 5 cycles of experiments were performed. In Cycles 1 each cannabinoid at different concentrations was separately administered; in Cycle 2—combinations of the cannabinoids with different concentration were administered (4 mice per group were used for items), in Cycle 3—different terpenes at different concentration were administered, in Cycle 4—combinations of different cannabinoids and terpenes were administered and in Cycle 5—compositions with high content of cannabinoids and low content of terpenes were tested (4 mice per group).
Female mice BALB/c strain of 7 weeks age were used for the experiment. The mice were allowed to acclimatize for at least 5 days. Animals were fed ad libitum a commercial rodent diet (Teklad Certified Global 18% Protein Diet, Harlan cat #2018). Animals had free access to sterilized and acidified drinking water (pH between 2.5 and 3.5) obtained from the municipality supply. Animals were housed under standard laboratory conditions, air conditioned and filtered (HEPA F6/6) with adequate fresh air supply (Minimum 15 air changes/hour). Animals were kept in a climate controlled environment. Temperatures range were 18-24° C. and relative humidity range 30-70% with a 12 hours light and 12 hours dark cycle (6 AM/6 PM).
The duration of the study was one day per cycle. The study was conducted in five cycles (see Tables 10-15). Each Test Item or vehicle formulation was administrated to three (or four) animals per group. Morbidity and mortality was checked once a day.
Sleeping Test was performed according to Pharmaseed's SOP No. 130: “Loss of Righting Reflex”. Mice were injected intraperitoneally (IP) with the positive control Diazepam (2 mg/kg, IP), vehicle or with the Test Items 30 minutes prior to Pentobarbital (40 mg/kg, IP) administration. Observation of the mouse begun immediately after administration of Pentobarbital. Once the mouse was asleep (the loss of righting reflex—LORR), it was be transferred to a home cage and placed on its back. Mice was considered awake when they could successfully upright themselves (all four feet in contact with the surface). Once a mouse righted itself, it was placed on its back once again and allowed to right a second time for confirmation. Expected sleep onset and duration of the negative control group was 5-8 min and 20-25 min, respectively. For positive control expected sleep onset and duration were 3-4 min and 40-50 min, respectively.
While the animals were asleep, fatty ophthalmic ointment (e.g. Duratears®) was be applied to their eyes to avoid drying of the eye. Also, since Diazepam might cause hypothermia, the cages with the sleeping mice were be placed on a heating pad.
The following parameters were be recorded and served as an index of sleep behavior: • Sleep latency—time required to sleep induction. • Sleep duration.
At termination, the animals were sacrificed by CO2 asphyxiation.

Setting [1] is: Cycle 4, group 43F, Diazepam 2 mg/kg.
[2] abbreviates: Cycle 1, high doses (above 5 mg/kg).

For the compound `C=C(C)[C@@H]1CCC(C)=C[C@H]1c1c(O)cc(CCCCC)cc1O` [CBD, cannabidiol], the effect on sleeping result (Cycle 1, 1 mg/kg dose) is on record as “assisted in sleeping”. For the same compound, the “Sleep duration (mean)” value (Cycle 1, dose 1 mg/kg IP) is recorded as “(14)”; the “Sleep duration (mean)” value (Cycle 1, dose 5 mg/kg IP) is recorded as “(49)”; the “Sleep duration (mean)” value (Cycle 1, dose 20 mg/kg IP) is “(48)”; the “Sleep duration (mean)” value (Cycle 1, dose 50 mg/kg IP) is “(84)”. Further, the Sleep duration median worked out at 9 (Cycle 1, dose 1 mg/kg IP); 49 (Cycle 1, dose 5 mg/kg IP); 48 (Cycle 1, dose 20 mg/kg IP); 68 (Cycle 1, dose 50 mg/kg IP). The “Sleep latency (mean)” value by setting is: (Cycle 1, dose 1 mg/kg IP) “(13)”; (Cycle 1, dose 5 mg/kg IP) “(6)”; (Cycle 1, dose 20 mg/kg IP) “(8)”; (Cycle 1, dose 50 mg/kg IP) “(6)”. In addition, the Sleep latency median came out at 16 (Cycle 1, dose 1 mg/kg IP); 6 (Cycle 1, dose 5 mg/kg IP); 9 (Cycle 1, dose 20 mg/kg IP); 6 (Cycle 1, dose 50 mg/kg IP).
Take `CCCCCc1cc(O)c2c(c1)OC(C)(C)c1ccc(C)cc1-2` [CBN, 6,6,9-trimethyl-3-pentylbenzo[c]chromen-1-ol]: where the note is “Cycle 1”, the “dose response for duration of sleep parameter” value was “moderate dose response”. For the same compound, the “Sleep duration (mean)” value by setting is: (Cycle 1, dose 0.1 mg/kg IP) “(26)”; (Cycle 1, dose 0.5 mg/kg IP) “(14)”; (Cycle 1, dose 2 mg/kg IP) “(23)”; (Cycle 1, dose 5 mg/kg IP) “(31)”. Moreover, the Sleep duration median is on record as 34 (Cycle 1, dose 0.1 mg/kg IP); 15 (Cycle 1, dose 0.5 mg/kg IP); 25 (Cycle 1, dose 2 mg/kg IP); 32 (Cycle 1, dose 5 mg/kg IP). Also, the “Sleep latency (mean)” value by setting is: (Cycle 1, dose 0.1 mg/kg IP) “(5)”; (Cycle 1, dose 0.5 mg/kg IP) “(8)”; (Cycle 1, dose 2 mg/kg IP) “(6)”; (Cycle 1, dose 5 mg/kg IP) “(9)”. Moreover, the Sleep latency median reads like this: (Cycle 1, dose 0.1 mg/kg IP) 4; (Cycle 1, dose 0.5 mg/kg IP) 8; (Cycle 1, dose 2 mg/kg IP) 6; (Cycle 1, dose 5 mg/kg IP) 8.
Take `CN1C(=O)CN=C(c2ccccc2)c2cc(Cl)ccc21` [Diazepam, reference compound]: the “state of the mice after awakening” value (Cycle 1) is listed as “remained dizzy for a prolonged period of time”. Besides, for the setting “Cycle 1, dose 2 mg/kg IP”, the “Sleep duration (mean)” value was “(94)”, the Sleep duration median is on record as 94, the “Sleep latency (mean)” value is “(3)” and the Sleep latency median amounted to 2. Under “Cycle 2, dose 2 mg/kg IP”, the “Sleep duration (mean)” value was “(51.7)”, the Sleep duration median worked out at 56, the “Sleep latency (mean)” value was “(4.3)” and the Sleep latency median is on record as 4. Moreover, for the setting “Cycle 3, Dose 2, IP”, the “Sleep duration (mean)” value is reported as “(66.3)”, the Sleep duration median is listed as 60, the “Sleep latency (mean)” value is on record as “(2.3)” and the Sleep latency median was 2. Also, under setting [1], the “Sleep duration (mean)” value is “(76)”, the Sleep duration median is recorded as 69, the “Sleep latency (mean)” value is “(3.3)” and the Sleep latency median amounted to 3.
In the case of `C=CC(C)(O)CCC=C(C)C` (stereo not shown) [Linalool, linalool], under “Cycle 3, Dose 20, IP”, the “Sleep duration (mean)” value is “(5.3)”, the Sleep duration median is 6, the “Sleep latency (mean)” value is given as “(5)” and the Sleep latency median was 5. Besides, under “Cycle 3, Dose 100, IP”, the “Sleep duration (mean)” value is “(5.3)”, the Sleep duration median came to 6, the “Sleep latency (mean)” value is listed as “(5.5)” and the Sleep latency median came to 5. In addition, where the note is “Cycle 3, Dose 300, IP”, the “Sleep duration (mean)” value is on record as “(97.3)”, the Sleep duration median amounted to 120, the “Sleep latency (mean)” value was “(2)” and the Sleep latency median came out at 2. Where the note is “Cycle 4”, the “dose response of the terpene in combination with CBN and CBD” value is given as “evident dose response”. In addition, where the note is “Cycle 5, dose 10 mg/kg IP”, the “Sleep duration (mean)” value is recorded as “(6)”, the Sleep duration median stood at 6.5, the “Sleep latency (mean)” value is given as “(8)” and the Sleep latency median turned out to be 8.
With `C=CC(=C)CCC=C(C)C` [Myrcene, β-myrcene], under “Cycle 3, Dose 20, IP”, the “Sleep duration (mean)” value is reported as “(8.7)”, the Sleep duration median is 9, the “Sleep latency (mean)” value is recorded as “(4.7)” and the Sleep latency median worked out at 5. Besides, where the note is “Cycle 3, Dose 100, IP”, the “Sleep duration (mean)” value was “(7.3)”, the Sleep duration median is 7, the “Sleep latency (mean)” value is reported as “(5)” and the Sleep latency median was 5. Also, under “Cycle 3, Dose 300, IP”, the “Sleep duration (mean)” value is “(61.3)”, the Sleep duration median stood at 31, the “Sleep latency (mean)” value is reported as “(3)” and the Sleep latency median is listed as 3. In addition, where the note is “Cycle 4”, the “dose response of the terpene in combination with CBN and CBD” value is “evident dose response”. For the setting “Cycle 5, dose 10 mg/kg IP”, the “Sleep duration (mean)” value was “(5)”, the Sleep duration median was found to be 5, the “Sleep latency (mean)” value is reported as “(5)” and the Sleep latency median was found to be 5.
As for `CCCCCc1cc(O)c2c(c1)OC(C)(C)[C@@H]1CCC(C)=C[C@@H]21` [THC, tetrahydrocannabinol], the “state of the mice after awakening” value (Cycle 1) was “much more vivid after awakening”. Also, where the note is “Cycle 1, dose 0.5 mg/kg IP”, the “Sleep duration (mean)” value is “(6)”, the Sleep duration median is given as 8, the “Sleep latency (mean)” value was “(4)” and the Sleep latency median is 4. Further, for the setting “Cycle 1, dose 2 mg/kg IP”, the “Sleep duration (mean)” value is given as “(12)”, the Sleep duration median is reported as 0, the “Sleep latency (mean)” value is listed as “(20)” and the Sleep latency median is reported as 20. Moreover, where the note is “Cycle 1, dose 5 mg/kg IP”, the “Sleep duration (mean)” value was “(10)”, the Sleep duration median was found to be 9, the “Sleep latency (mean)” value is given as “(25)” and the Sleep latency median came to 24. In addition, where the note is “Cycle 1, dose 10 mg/kg IP”, the “Sleep duration (mean)” value is “(21)”, the Sleep duration median stood at 11, the “Sleep latency (mean)” value is reported as “(11)” and the Sleep latency median is recorded as 11. Moreover, under setting [2], the “effect on sleep duration” value is reported as “decreases the sleep duration” and the “effect on sleep latency (time required for falling asleep)” value was “increases the sleep latency”. The “effect on onset of sleep” value (Cycle 1, medium concentrations (2-5 mg/kg)) was “increases the onset of sleep”. Moreover, the “effect of addition to the combination of CBN, CBD and terpene” value (Cycle 4, 0.5 mg/kg) is on record as “reduced the observed effect”.
